# Source: patent publication US10246426B2, “Triazole compounds as T-type calcium channel blockers” (IDORSIA PHARMACEUTICALS LTD, priority 2014, dated 2019)
# Target: Cav3.2 (Homo sapiens, UniProt O95180)
# Assay: Calcium flux FLIPR assay, HEK293 cells recombinantly expressing Cav3.2
# Format: cell-based
# Conditions: Cav3.2-channel, Ca2+ entry stimulated by 10 mM CaCl2
# Protocol: In Vitro Methods—Measurement of Calcium Channel Flux by Means of FLIPR Assays.
# HEK293 cells recombinantly expressing either voltage-dependent T-type calcium channel subunit […] (Cav3.2) or voltage-dependent L-type calcium channel subunit alpha-1C (Cav1.2) are assayed for calcium flux using the calcium indicator dye Fluo-4-AM (Molecular Devices) and FLIPR technology (Fluorometric Imaging Plate Reader, Molecular Devices) (Xie X, Van Deusen A L, Vitko I, Babu D A, Davies L A, Huynh N, Cheng H, Yang N, Barrett P Q, Perez-Reyes E. Validation of high throughput screening assays against three subtypes of Ca(v)3 T-type channels using molecular and pharmacologic approaches. Assay and Drug Development Technologies 2007, 5(2), 191-203). The HEK293 cells recombinantly expressing Cav3.2 are maintained in DMEM growth medium (Life Technologies) supplemented with 10% Fetal Bovine Serum (FBS), 100 U/ml penicilin (Life Technologies), 100 μg/ml streptomycin (Life Technologies) and 1 mg/ml G418 (Life Technologies). HEK293 cells recombinantly expressing Cav1.2 are maintained in DMEM growth medium (Life technologies) supplemented with 10% FBS, 0.1 mg/ml G418 (Life Technologies), 0.1 mg/ml hygromycin (Life Technologies) and 40 ug/ml zeocin (Life Technologies).
# Cells are washed once with PBS, then dissociated in 0.25% trypsin/EDTA (Life Technologies) and seeded into poly-D-lysine coated 384-well black, clear bottom plates (BD Biosciences) at a density of 30,000 cells/well. The seeded plates are incubated overnight at 37° C.
# Immediately prior to performing the assay, medium is removed and cells are treated for 1 hour at 37° C. with loading buffer containing HBSS 1× (137 mM NaCl; 5.4 mM KCl; 0.25 mM Na2HPO4; 1.3 mM CaCl2; 0.4 mM MgSO04; 0.5 mM MgCl2; 0.4 mM KH2PO4, pH 7.4), 0.375 g/L NaHCO3, 20 mM Hepes, supplemented with 3 μM Fluo-4-AM and 0.15% Pluronic (Life Technologies). The cells are then washed three times with assay buffer (HBSS 1×; 0.375 g/L NaHCO3; 20 mM Hepes; 1% FBS; pH 7.4) and allowed to rest in 50 μl of wash buffer for 30 minutes.
# Stock solutions of test compounds are prepared to a concentration of 10 mM in DMSO. For the Cav3.2 assay, serial dilutions of the compounds are prepared in TEAC buffer (100 mM tetraethylammonium chloride; 20 mM Hepes; 2.5 mM CaCl2; 5 mM KCl; 1 mM MgCl2; 1% FBS; pH 7.2), for the Cav1.2 assay serial dilutions are prepared in assay buffer. […] The compounds are incubated with the cells for 3 minutes and Ca2+ entry is stimulated by adding either CaCl2 to a final concentration of 10 mM (Cav3.2 assay) or by adding KCl to a final concentration of 20 mM (Cav1.2 assay). The kinetics of fluorescence increase are recorded for every well and the area under the fluorescence trace for every compound concentration is used to generate inhibition curves using non-linear regression sigmoidal concentration-response curve analysis with in-house software. IC50 values are calculated and represent the compound concentration required to inhibit 50% of the signal that is obtained in the presence of vehicle instead of test compound.
# Sequence of Cav3.2 (O95180 whole entry, looked up): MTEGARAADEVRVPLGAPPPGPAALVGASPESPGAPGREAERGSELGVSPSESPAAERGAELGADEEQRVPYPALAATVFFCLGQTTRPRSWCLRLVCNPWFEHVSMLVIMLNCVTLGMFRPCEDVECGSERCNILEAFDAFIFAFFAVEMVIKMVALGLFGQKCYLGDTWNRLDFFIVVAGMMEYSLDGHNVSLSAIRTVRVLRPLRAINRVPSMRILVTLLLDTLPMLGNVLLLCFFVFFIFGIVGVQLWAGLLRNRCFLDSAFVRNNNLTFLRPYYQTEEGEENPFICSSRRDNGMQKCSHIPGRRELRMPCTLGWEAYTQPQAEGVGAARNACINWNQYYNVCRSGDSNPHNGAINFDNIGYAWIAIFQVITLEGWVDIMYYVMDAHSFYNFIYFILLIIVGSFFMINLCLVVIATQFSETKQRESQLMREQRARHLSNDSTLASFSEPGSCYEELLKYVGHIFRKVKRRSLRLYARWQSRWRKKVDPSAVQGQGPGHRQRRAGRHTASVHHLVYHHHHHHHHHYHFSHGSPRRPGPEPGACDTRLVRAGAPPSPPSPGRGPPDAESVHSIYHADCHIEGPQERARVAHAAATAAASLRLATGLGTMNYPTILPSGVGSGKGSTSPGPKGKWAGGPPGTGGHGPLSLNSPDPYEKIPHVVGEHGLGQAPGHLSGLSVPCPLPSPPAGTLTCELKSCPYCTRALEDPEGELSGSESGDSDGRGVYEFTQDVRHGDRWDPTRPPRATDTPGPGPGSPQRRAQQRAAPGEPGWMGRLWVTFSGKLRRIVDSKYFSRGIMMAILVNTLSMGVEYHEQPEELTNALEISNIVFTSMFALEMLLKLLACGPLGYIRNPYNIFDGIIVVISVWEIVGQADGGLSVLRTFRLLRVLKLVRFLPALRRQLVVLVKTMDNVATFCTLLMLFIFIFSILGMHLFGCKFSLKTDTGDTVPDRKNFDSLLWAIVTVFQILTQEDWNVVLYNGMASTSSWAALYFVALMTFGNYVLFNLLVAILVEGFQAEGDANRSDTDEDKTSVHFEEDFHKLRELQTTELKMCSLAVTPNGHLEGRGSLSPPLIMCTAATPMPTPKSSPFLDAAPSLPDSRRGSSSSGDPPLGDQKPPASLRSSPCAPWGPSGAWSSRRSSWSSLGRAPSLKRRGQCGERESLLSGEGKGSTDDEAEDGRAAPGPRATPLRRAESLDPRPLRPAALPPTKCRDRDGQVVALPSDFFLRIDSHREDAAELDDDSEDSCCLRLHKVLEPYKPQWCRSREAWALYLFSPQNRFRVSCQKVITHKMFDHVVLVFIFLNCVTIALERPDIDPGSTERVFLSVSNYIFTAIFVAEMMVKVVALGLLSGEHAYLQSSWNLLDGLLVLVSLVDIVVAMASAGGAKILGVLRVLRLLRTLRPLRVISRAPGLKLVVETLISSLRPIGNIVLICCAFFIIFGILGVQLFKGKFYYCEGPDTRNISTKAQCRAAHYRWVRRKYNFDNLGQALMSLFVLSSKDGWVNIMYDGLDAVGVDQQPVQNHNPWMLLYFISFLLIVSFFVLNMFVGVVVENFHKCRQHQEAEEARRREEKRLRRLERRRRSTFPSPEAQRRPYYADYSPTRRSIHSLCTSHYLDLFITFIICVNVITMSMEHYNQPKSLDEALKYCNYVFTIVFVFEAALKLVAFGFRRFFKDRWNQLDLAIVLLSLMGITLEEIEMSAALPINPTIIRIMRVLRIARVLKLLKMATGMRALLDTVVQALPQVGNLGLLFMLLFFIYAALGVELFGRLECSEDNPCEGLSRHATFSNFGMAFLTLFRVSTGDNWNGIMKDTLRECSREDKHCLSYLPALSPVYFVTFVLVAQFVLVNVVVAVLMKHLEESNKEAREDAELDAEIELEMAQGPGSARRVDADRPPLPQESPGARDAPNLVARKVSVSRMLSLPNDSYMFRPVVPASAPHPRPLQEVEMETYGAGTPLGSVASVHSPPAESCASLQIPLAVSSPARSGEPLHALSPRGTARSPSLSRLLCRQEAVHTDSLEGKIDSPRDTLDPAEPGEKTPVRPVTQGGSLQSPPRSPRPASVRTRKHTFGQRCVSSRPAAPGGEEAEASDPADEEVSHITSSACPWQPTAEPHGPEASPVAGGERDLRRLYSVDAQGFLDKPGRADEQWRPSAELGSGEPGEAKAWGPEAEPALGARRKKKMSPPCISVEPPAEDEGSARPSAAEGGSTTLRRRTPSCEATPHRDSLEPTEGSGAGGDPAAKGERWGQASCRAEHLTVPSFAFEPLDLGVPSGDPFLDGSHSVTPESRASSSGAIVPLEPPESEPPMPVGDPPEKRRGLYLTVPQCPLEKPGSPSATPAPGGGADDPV
row,Structure (SMILES),IC50 [nM]
1,"O=C(Cc1ccc2[nH]nc(C(F)(F)F)c2c1)Nc1cnn(Cc2ccc(F)c(F)c2)n1 [Example 39, N-[2-(3,4-Difluoro-benzyl)-2H-[1,2,3]triazol-4-yl]-2-(3-trifluoromethyl-1H-indazol-5-yl)-acetamide]",280
2,"CCOc1ccc(Cn2ncc(NC(=O)Cc3ccc4c(ccn4C)c3)n2)cc1 [Example 40, N-[2-(4-Ethoxy-benzyl)-2H-[1,2,3]triazol-4-yl]-2-(1-methyl-1H-indol-5-yl)-acetamide]",35
3,"CCOc1ccc(Cn2ncc(NC(=O)Cc3ccc(N4CCC(F)(F)C4)nc3)n2)cc1 [Example 41, 2-[6-(3,3-Difluoro-pyrrolidin-1-yl)-pyridin-3-yl]-N-[2-(4-ethoxy-benzyl)-2H-[1,2,3]triazol-4-yl]-acetamide]",18
4,"CCOc1ccc(Cn2ncc(NC(=O)Cc3ccc(C4(C)COC4)cc3)n2)cc1 [Example 42, N-[2-(4-Ethoxy-benzyl)-2H-[1,2,3]triazol-4-yl]-2-[4-(3-methyl-oxetan-3-yl)-phenyl]-acetamide]",31
5,"CCOc1ccc(Cn2ncc(NC(=O)Cc3ccc(C(C)(C)C)cc3)n2)cc1 [Example 43, 2-(4-tert-Butyl-phenyl)-N-[2-(4-ethoxy-benzyl)-2H-[1,2,3]triazol-4-yl]-acetamide]",45
6,"CCOc1ccc(Cn2ncc(NC(=O)Cc3ccc(C(C)C)cc3)n2)cc1 [Example 44, N-[2-(4-Ethoxy-benzyl)-2H-[1,2,3]triazol-4-yl]-2-(4-isopropyl-phenyl)-acetamide]",40
7,"CCOc1ccc(Cn2ncc(NC(=O)Cc3ccc(N4CCCC4)nc3)n2)cc1 [Example 45, N-[2-(4-Ethoxy-benzyl)-2H-[1,2,3]triazol-4-yl]-2-(6-pyrrolidin-1-yl-pyridin-3-yl)-acetamide]",32
8,"CCOc1ccc(Cn2ncc(NC(=O)Cc3ccc4c(cnn4C)c3)n2)cc1 [Example 46, N-[2-(4-Ethoxy-benzyl)-2H-[1,2,3]triazol-4-yl]-2-(1-methyl-1H-indazol-5-yl)-acetamide]",63
9,"CCN(CC)c1ccc(CC(=O)Nc2cnn(Cc3ccc(OC)c(OC)c3)n2)cn1 [Example 47, 2-(6-Diethylamino-pyridin-3-yl)-N-[2-(3,4-dimethoxy-benzyl)-2H-[1,2,3]triazol-4-yl]-acetamide]",560
10,"COc1ccc(Cn2ncc(NC(=O)Cc3ccc(N4CCC(F)(F)C4)nc3)n2)cc1OC [Example 48, 2-[6-(3,3-Difluoro-pyrrolidin-1-yl)-pyridin-3-yl]-N-[2-(3,4-dimethoxy-benzyl)-2H-[1,2,3]triazol-4-yl]-acetamide]",530
11,"COc1ccc(Cn2ncc(NC(=O)Cc3ccc(C(C)(C)C)cc3)n2)cc1OC [Example 49, 2-(4-tert-Butyl-phenyl)-N-[2-(3,4-dimethoxy-benzyl)-2H-[1,2,3]triazol-4-yl]-acetamide]",170
12,"COc1ccc(Cn2ncc(NC(=O)Cc3ccc(C(C)C)cc3)n2)cc1OC [Example 50, N-[2-(3,4-Dimethoxy-benzyl)-2H-[1,2,3]triazol-4-yl]-2-(4-isopropyl-phenyl)-acetamide]",160
13,"COc1ccc(Cn2ncc(NC(=O)Cc3ccc(N4CCCC4)nc3)n2)cc1OC [Example 51, N-[2-(3,4-Dimethoxy-benzyl)-2H-[1,2,3]triazol-4-yl]-2-(6-pyrrolidin-1-yl-pyridin-3-yl)-acetamide]",600
14,"Cn1ccc2cc(CC(=O)Nc3cnn(Cc4ccc(F)cc4)n3)ccc21 [Example 52, N-[2-(4-Fluoro-benzyl)-2H-[1,2,3]triazol-4-yl]-2-(1-methyl-1H-indol-5-yl)-acetamide]",12
15,"CC1(c2ccc(CC(=O)Nc3cnn(Cc4ccc(F)cc4)n3)cc2)COC1 [Example 53, N-[2-(4-Fluoro-benzyl)-2H-[1,2,3]triazol-4-yl]-2-[4-(3-methyl-oxetan-3-yl)-phenyl]-acetamide]",35
16,"CC(C)(C)c1ccc(CC(=O)Nc2cnn(Cc3ccc(F)cc3)n2)cc1 [Example 54, 2-(4-tert-Butyl-phenyl)-N-[2-(4-fluoro-benzyl)-2H-[1,2,3]triazol-4-yl]-acetamide]",26
17,"O=C(Cc1ccc(N2CCCC2)nc1)Nc1cnn(Cc2ccc(F)cc2)n1 [Example 55, N-[2-(4-Fluoro-benzyl)-2H-[1,2,3]triazol-4-yl]-2-(6-pyrrolidin-1-yl-pyridin-3-yl)-acetamide]",50
18,"Cn1ncc2cc(CC(=O)Nc3cnn(Cc4ccc(F)cc4)n3)ccc21 [Example 56, N-[2-(4-Fluoro-benzyl)-2H-[1,2,3]triazol-4-yl]-2-(1-methyl-1H-indazol-5-yl)-acetamide]",38
19,"COc1ccc(Cn2ncc(NC(=O)Cc3ccc4c(ccn4C)c3)n2)cc1 [Example 57, N-[2-(4-Methoxy-benzyl)-2H-[1,2,3]triazol-4-yl]-2-(1-methyl-1H-indol-5-yl)-acetamide]",38
20,"CCN(CC)c1ccc(CC(=O)Nc2cnn(Cc3ccc(OC)cc3)n2)cn1 [Example 58, 2-(6-Diethylamino-pyridin-3-yl)-N-[2-(4-methoxy-benzyl)-2H-[1,2,3]triazol-4-yl]-acetamide]",160
21,COc1ccc(Cn2ncc(NC(=O)Cc3ccc(N4CCC(F)(F)C4)nc3)n2)cc1 [Example 59],60
22,"COc1ccc(Cn2ncc(NC(=O)Cc3ccc(C4(C)COC4)cc3)n2)cc1 [Example 60, N-[2-(4-Methoxy-benzyl)-2H-[1,2,3]triazol-4-yl]-2-[4-(3-methyl-oxetan-3-yl)-phenyl]-acetamide]",120
23,"COc1ccc(Cn2ncc(NC(=O)Cc3ccc(C(C)(C)C)cc3)n2)cc1 [Example 61, 2-(4-tert-Butyl-phenyl)-N-[2-(4-methoxy-benzyl)-2H-[1,2,3]triazol-4-yl]-acetamide]",44
24,"COc1ccc(Cn2ncc(NC(=O)Cc3ccc(N4CCCC4)nc3)n2)cc1 [Example 62, N-[2-(4-Methoxy-benzyl)-2H-[1,2,3]triazol-4-yl]-2-(6-pyrrolidin-1-yl-pyridin-3-yl)-acetamide]",120
25,"COc1ccc(Cn2ncc(NC(=O)Cc3ccc4c(cnn4C)c3)n2)cc1 [Example 63, N-[2-(4-Methoxy-benzyl)-2H-[1,2,3]triazol-4-yl]-2-(1-methyl-1H-indazol-5-yl)-acetamide]",160
26,"Cc1ccc(Cn2ncc(NC(=O)Cc3ccc4c(ccn4C)c3)n2)cc1 [Example 64, N-[2-(4-Methyl-benzyl)-2H-[1,2,3]triazol-4-yl]-2-(1-methyl-1H-indol-5-yl)-acetamide]",30
27,"Cc1ccc(Cn2ncc(NC(=O)Cc3ccc(N4CCC(F)(F)C4)nc3)n2)cc1 [Example 65, 2-[6-(3,3-Difluoro-pyrrolidin-1-yl)-pyridin-3-yl]-N-[2-(4-methyl-benzyl)-2H-[1,2,3]triazol-4-yl]-acetamide]",23
28,"Cc1ccc(Cn2ncc(NC(=O)Cc3ccc(C(C)(C)C)cc3)n2)cc1 [Example 66, 2-(4-tert-Butyl-phenyl)-N-[2-(4-methyl-benzyl)-2H-[1,2,3]triazol-4-yl]-acetamide]",70
29,"Cc1ccc(Cn2ncc(NC(=O)Cc3ccc(C4(C)COC4)cc3)n2)cc1 [Example 67, N-[2-(4-Methyl-benzyl)-2H-[1,2,3]triazol-4-yl]-2-[4-(3-methyl-oxetan-3-yl)-phenyl]-acetamide]",66
